How the values were obtained:
[1] = target: T1, human PPARgamma-ligand binding domain (LBD) (Homo sapiens, UniProt P37231); assay: AlphaScreen: recruiting of biotinylated LXXLL peptide of cofactor CBP to GST-PPARgamma-LBD; type: biochemical
T1 construct: codes for the amino acids 205-505 of the human PPARgamma2 transcription factor; made in house; host or cells: E. coli BL21(DE3), vector pGEX-4T-1
T1 sequence (P37231 205-505): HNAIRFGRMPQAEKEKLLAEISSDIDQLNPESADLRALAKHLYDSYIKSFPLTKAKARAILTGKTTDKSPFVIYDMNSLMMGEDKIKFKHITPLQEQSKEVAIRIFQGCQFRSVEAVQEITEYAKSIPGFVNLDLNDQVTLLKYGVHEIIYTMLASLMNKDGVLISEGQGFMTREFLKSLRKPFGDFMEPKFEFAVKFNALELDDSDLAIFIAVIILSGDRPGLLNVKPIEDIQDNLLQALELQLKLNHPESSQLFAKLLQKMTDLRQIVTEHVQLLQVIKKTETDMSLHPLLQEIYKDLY
Protocol: Protein containing the human PPARgamma-ligand binding domain (LBD) is prepared as a GST fusion protein in E.coli and purified by affinity chromatography. […] The fusion protein is expressed in the E.coli strain BL21(DE3) recommended for pGEX vectors after induction with 0.2 mM IPTG for 4 hours at 25° C. The bacteria are pelleted after the induction and frozen in batches in PBS, pH 7.4. After opening up in a French Press, the dissolved GST-PPARgamma-LBD-fusion protein is purified using a GSTrap column (Pharmacia). Elution is carried out by the addition of 20 mM reduced glutathione.
The GST-PPARgamma-LBD-protein fractions are desalinated using a HiTrap desalting column (Pharmacia) and the protein concentration is determined using a standard assay.
The assay buffer consists of 25 mM Hepes pH7.4, 100 mM NaCl,1 mM DTT, 0.1% Tween-20, 0.1% BSA. […] The final DMSO concentration in the assay is 1% (v/v). A 1% DMSO solution is used as the background control (NSB). The measurement is done using a Packard fusion measuring device.

[2] = target: T2, ligand binding domain of the human PPARgamma2 transcription factor (Gal4 DNA binding domain fusion) (Homo sapiens, UniProt P37231); assay: Luciferase activity in stably transformed PPARgamma reporter cell line (CHO-K1 clone 11); type: cell-based; conditions: 24 hours
T2 construct: codes for amino acids 205-505 of the human PPARgamma2 transcription factor; expressed in transfected cells
T2 sequence (P37231 205-505): T1 sequence (P37231 205-505)
Protocol: The resulting plasmid pFA-CMV/hPPARgamma2-LBD codes N-terminally of the PPARgamma-LBD in the same reading frame for a Gal4 DNA binding domain. In addition the plasmid codes for a neomycin resistance.
The cell line CHO-K1 (ATCC CCL-61) is cotransfected with the plasmids pFA-CMV/hPPARgamma2-LBD and pFR-Luc (Stratagene). pFR-Luc codes for the luciferase gene under the control of a five-times repeated yeast Gal4 binding site. The transfection is carried out with lipofectamine2000 in accordance with the manufacturer's instructions.
After six days' cultivation the cells are passaged and kept in culture for another 10 days. The resulting neomycin-resistant colonies are picked out under the microscope and transferred into 96 well-dishes and cultured.
The test substances are brought to 100 times the desired concentration with a suitable solvent, e.g. DMSO, and diluted 1:100 with the medium placed in the cell culture plate. The solvent used, e.g. DMSO, is used as the background control in the same concentration.
Luminescence is measured after a five minute wait using a Packard TopCount NXT. The luciferase activity is obtained by integrating the relative luciferase units (RLU) of the first ten seconds after the start of measurement.

[3] = target: T3, PPARgamma (Homo sapiens, UniProt P37231); assay: Transcription reporter assay (PPRE-luciferase) in AT1-receptor-deficient PC12W cells; type: cell-based; conditions: 10 μmol/L
T3 construct: expressed in transfected cells; host or cells: PC12W cells (AT1-receptor-deficient), transient transfection
T3 sequence (P37231 1-505): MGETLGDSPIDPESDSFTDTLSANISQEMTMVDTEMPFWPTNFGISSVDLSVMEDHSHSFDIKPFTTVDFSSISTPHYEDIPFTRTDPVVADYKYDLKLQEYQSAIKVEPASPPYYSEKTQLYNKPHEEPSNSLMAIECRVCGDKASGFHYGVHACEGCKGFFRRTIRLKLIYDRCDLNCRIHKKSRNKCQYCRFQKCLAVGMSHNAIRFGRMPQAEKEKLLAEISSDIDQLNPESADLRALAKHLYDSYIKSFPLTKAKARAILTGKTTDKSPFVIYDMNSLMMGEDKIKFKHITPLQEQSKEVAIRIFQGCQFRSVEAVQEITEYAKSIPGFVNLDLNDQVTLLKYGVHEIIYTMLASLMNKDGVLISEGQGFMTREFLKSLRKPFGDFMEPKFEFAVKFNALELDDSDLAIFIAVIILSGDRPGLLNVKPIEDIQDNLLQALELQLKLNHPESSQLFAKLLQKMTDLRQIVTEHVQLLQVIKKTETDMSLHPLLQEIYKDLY
T3 sequence (P19793 1-462 partner): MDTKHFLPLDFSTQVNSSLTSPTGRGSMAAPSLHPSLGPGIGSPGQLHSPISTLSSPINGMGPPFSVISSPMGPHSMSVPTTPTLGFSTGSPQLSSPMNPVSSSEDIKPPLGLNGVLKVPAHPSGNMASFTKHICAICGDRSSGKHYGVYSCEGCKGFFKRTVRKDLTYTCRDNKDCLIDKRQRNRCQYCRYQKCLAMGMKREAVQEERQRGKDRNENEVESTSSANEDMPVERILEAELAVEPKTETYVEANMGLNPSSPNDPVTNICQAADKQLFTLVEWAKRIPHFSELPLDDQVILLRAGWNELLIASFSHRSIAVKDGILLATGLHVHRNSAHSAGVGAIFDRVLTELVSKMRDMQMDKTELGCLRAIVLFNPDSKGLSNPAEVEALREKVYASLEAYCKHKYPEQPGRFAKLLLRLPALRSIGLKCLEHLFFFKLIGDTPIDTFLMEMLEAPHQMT
Protocol: 3T3-L1 adipocytes (day 4) or PC12W cells are transfected with Lipofectamine 2000 (Invitrogen) in the presence of 1 μg (for 3T3-L1 cells) or 50 ng (for PC12W cells) of a reporter construct, PPARgamma2 and RXRalpha expression vectors and 10 ng of a Renilla Luciferase Reporter control vector. The reporter construct is a fusion of 3xAcyl-CoA oxidase PPAR Response Element (PPRE) with Tk-luciferase. […] The Luciferase Reporter control vector is the plasmid pRL-CMV (Promega).
PC12W cells are AT1-receptor-deficient.

CCCc1nc2c(C)cc(-c3nc4ccccc4n3C)cc2n1Cc1ccc(-c2ccccc2C(=O)O)cc1 [telmisartan] was tested, and the “AlphaScreen signal (MW)” value ([1]; 1.00E−05 M test substance) was 847, the “AlphaScreen signal (MW)” value ([1]; 1.00E−06 M test substance) was 677 and the “AlphaScreen signal (MW)” value ([1]; 1.00E−07 M test substance) was 606. The “AlphaScreen signal (MW)” value ([1]; 3.00E−06 M test substance) was 720, the “AlphaScreen signal (MW)” value ([1]; 3.00E−07 M test substance) was 644 and the “AlphaScreen signal (MW)” value ([1]; 3.00E−08 M test substance) was 642. For the same molecule, the “AlphaScreen signal (MW)” value ([1]; 5.00E−05 M test substance) was 1111, the “direct activation of the PPARgamma-LBD / recruiting of the LXXLL peptide” value ([1]; concentrations of up to 50 μM) was “does not result in any direct activation” and the “luciferase activity (MW)” value ([2]; 1.00E−05 M) was 61397 RLU. The “luciferase activity (MW)” value ([2]; 1.00E−06 M) was 2859 RLU, the “luciferase activity (MW)” value ([2]; 3.00E−05 M) was 58790 RLU and the “luciferase activity (MW)” value ([2]; 3.00E−06 M) was 24498 RLU. The “luciferase activity (MW)” value ([2]; 3.00E−07 M) was 760 RLU, the “regulation of the PPARgamma activity” value ([3]; PC12W cells in the absence of exogenous PPARgamma2/RXRalpha) was “no regulation” and the “induction of PPARgamma activity, factor” value ([3]; PC12W cells overexpressing PPARgamma2/RXRalpha) was 1.9±0.4.

— patent US20050070594A1, “Use of angiotensin II receptor antagonists” (Boehringer Ingelheim International GmbH, priority 2003, published 2005)
